From paper PMC4316792, “The dehydrogenase region of the NADPH oxidase component Nox2 acts as a protein disulfide isomerase (PDI) resembling PDIA3 with a role in the binding of the activator protein p67^phox” (Frontiers in Chemistry, 2015)
Entries after “also recorded” stand apart in the source; their conditions may differ.

How the values were obtained:
[1] = biological target: NADPH oxidase (macrophage membrane liposomes, cytochrome b558) (Cavia porcellus, UniProt H0UXC6); assay type: biochemical, guinea pig
[2] = test system: NADPH oxidase in intact phagocytes / neutrophils; set-up: method as in 3 sources, one per row (each row's own in cited_ref): ref Cohen and Chovaniec, [1978]; Yamashita et al., [1984] ||| ref Le Cabec and Maridonneau-Parini, [1995] ||| ref Tsunawaki et al., [2004]; settings: cited from earlier work
NADPH oxidase = test system: NADPH oxidase; set-up: method as in 8 sources, one per row (each row's own in cited_ref): ref Shpungin et al., [1989] ||| ref Bellavite et al., [1983]; Gabig and Lefker, [1984] ||| ref Pick et al., [1987] ||| ref Le Cabec and Maridonneau-Parini, [1995] ||| ref Nishida et al., [2005] ||| ...; settings: cited from earlier work
Nox4 = test system: Nox4; set-up: method as in Serrander et al., [2007]; settings: ref Serrander et al., [2007]; cited from earlier work
PDIA3 = test system: PDIA3; set-up: method as in Jasuja et al., [2012]; settings: ref Jasuja et al., [2012]; cited from earlier work
PDIA1 = settings: ref Xu et al., [2012]; cited from earlier work
Source text: Isomerization by PDI also requires the b′ domain (Ellgaard and Ruddock, [2005]) and, thus, an interact ...

PDI = test system: PDI; set-up: method as in 2 sources, one per row (each row's own in cited_ref): ref Gallina et al., [2002]; Raturi et al., [2005] ||| ref Dickerhof et al., [2011]; settings: ref Dickerhof et al., [2011]; cited from earlier work
p67^phox(1–212) = experiment: Effect of H2O2 on binding of p67phox(1–212) to Nox2 peptide 24; settings: p67^phox(1–212) 1.5 μM, H2O2 10 mM required (0.1, 1, 10 mM tested), 2 h at 4°C; three experiments (Figure 2C)
Method: This assay was used to assess the binding of p67^phox, in solution, to surface-attached synthetic Nox2 peptides. The procedure is a modified version of that described before (Morozov et al., [1998]; Dahan et al., [2002]). A brief description of the procedure is presented here. Synthetic Nox2 peptides, with a biotin tag at either the N- or C-terminus, were diluted to a concentration of 1 μM in PBS supplemented with 1% casein. 200 μl/well volumes were added to streptavidin-coated 96 well plates (BioBind Assembly, streptavidin-coated, Cat. No. 95029263, Thermo Fisher Scientific) and the plates incubated for 1 h at room temperature, the well contents being mixed on an orbital shaker. […] Bound peroxidase was quantified as described for the protein—protein binding assay.
Figure 2 Treatment of p67^phox with N-ethylmaleimide (NEM), diamide, or H2O2 reverses the enhanced binding to Nox2 peptides containing an intramolecular disulfide bond. p67^phox(1–526) (1.5 μM) was incubated with NEM (0.1 mM) (A) or diamide (5 mM) (B), for 1 h at room temperature. p67^phox(1–212) (1.5 μM) was exposed to H2O2 (0.1, 1, or 10 mM) for 2 h at 4°C (C). […] The binding of treated and untreated p67^phox, in solution, to surface-attached Nox2 peptide 24 (357–371), with an N-terminal biotin tag, was measured. […]

CN1C(=O)[C@]23CC4=CC=C[C@H](O)[C@H]4N2C(=O)[C@@]1(CO)SS3 [gliotoxin]
IC50, NADPH oxidase activation [1]: could not be determined | inhibition of oxidase activation, in words [1]: poor inhibitor | inhibition of oxidase activation in neutrophils [2]: inhibit oxidase activation | inhibition of oxidase activation in vitro (NADPH oxidase): marked inhibitory effect; also recorded: inhibit oxidase activation | effect on Nox4 (Nox4): did not affect

C[C@@H]1O[C@@H](OC[C@H]2O[C@@H](Oc3c(-c4ccc(O)c(O)c4)oc4cc(O)cc(O)c4c3=O)[C@H](O)[C@@H](O)[C@@H]2O)[C@H](O)[C@H](O)[C@H]1O [rutin]
inhibition of oxidase activation, in words [1]: Lack of an inhibitory effect | inhibitory effect on PDIA3 (PDIA3): lack an inhibitory effect

PACMA 31
inhibition of oxidase activation, in words [1]: Lack of an inhibitory effect | specificity for PDIA1 (PDIA1): exquisite specificity

bacitracin A
inhibitory potency on PDI (PDI): low inhibitory potency

OO [H2O2]
effect of H2O2 treatment of p67phox on binding to peptide 24 in the disulfide form (p67^phox(1–212)): markedly reduced | effect of exposure of phagocyte membranes on oxidase assembly (NADPH oxidase; without effect on the assembled complex, ref Ostuni et al., [2010]): inhibits oxidase assembly
